Measurements taken from patent US20170181999A1, “USE OF COMPOUNDS PRODUCED FROM ARRABIDAEA BRACHYPODA EXTRACTS AS ANTI-ULCEROGENIC AGENTS” (UNIVERSIDADE ESTADUAL PAULISTA "JULIO DE MESQUITA FILHO" - …, priority 2013, published 2017).
Marks after values point to notes of the source that are not given here.

How the values were obtained:
gastric acid secretion = experiment: Pylorus ligature and evaluation of the gastric juice parameters; assay type: in vivo, rats; settings: intra-duodenal administration; pylorus ligature, 4 hours
Method: The rats were in fasting for 48 hours with water ad libitum. On the day of the trial, the animals were divided into four groups: saline, lansoprazole, cimetidine and treated with A. brachypoda extract.
The rats were anesthetized and underwent a longitudinal incision just below the xiphoid apophysis for the pylorus ligature.
The drug administration was carried out immediately after the ligature, intraduodenally. The incisions were sutured, and after four hours of surgery, the rats were sacrificed. The stomachs were carefully withdrawn and acid secretion was collected. After centrifugation, the volume and pH of the secretion of each animal was measured.

[1] = tested on: glutathione reductase (GR); experiment: Glutathione reductase (GR) activity on the gastric mucous, ulcer induced by ethanol; assay type: in vivo; settings: oral administration, gastric mucous of rats
Method: For measuring the GR activity, the enzymatic reaction was prepared with 100 μL of the sample (after centrifugation and dilution of the supernatant in phosphate buffer pH=7.4 in a 1:10 ratio) and 150 μL of the mixture formed by EDTA (0.20 mM), oxidized glutathione (1 mM) and NADPH (0.1 mM). The absorbance was read at 365 nm, between 0 and 10 minutes, according to the technique developed by Carlberg & Mannervik, 1985.
Rats Unib-WH were submitted to fasting for 24 hours with water ad libitum. On the day of the trial, they were divided into […] groups: saline as negative control, lansoprazole as positive control and four groups with the A. brachypoda roots extracts at different concentrations (dosages of 10, 30, 100 and 300 mg·Kg-1) dissolved in saline at 10 mL·Kg-1 concentrations.
The animals received the predicted treatment for each group and one hour later, 1 mL of absolute ethanol was orally administered.
After one hour of ulcer induction, the rats were sacrificed by cervical dislocation and their stomachs were withdrawn for quantification of injuries.
The injury areas were calculated, the stomachs were homogenized, the cytosolic extracts were prepared and the membranes for conducting the biochemical assays.

[2] = tested on: glutathione peroxidase (GPx); experiment: Glutathione peroxidase (GPx) activity on the gastric mucous, ulcer induced by ethanol; assay type: in vivo; settings: oral administration, gastric mucous of rats
Method: Rats Unib-WH were submitted to fasting for 24 hours with water ad libitum. On the day of the trial, they were divided into 7 groups: saline as negative control, lansoprazole as positive control and four groups with the A. brachypoda roots extracts at different concentrations (dosages of 10, 30, 100 and 300 mg·Kg-1) dissolved in saline at 10 mL·Kg-1 concentrations.

GSH = experiment: Glutathione (GSH) levels on the gastric mucous, ulcer induced by ethanol; assay type: in vivo; settings: oral administration, gastric mucous of rats
Method: To proceed with the measurement of the total glutathione content, the method disclosed by Anderson in 1985 was used, which bases on the total oxidation of the reduced glutathione (GSH) present in a sample to its oxidized form (GSSG), through the incubation of the sample with dithiobis nitrobenzoic acid (DTNB). The reduced DTNB acquires a yellow coloration, which can be spectrophotometrically determined. The GSSG generated is reduced by the action of the enzyme glutathione reductase in the presence of NADPH. The GSH formed oxidizes again, generating a continuous cycle, in which the reduction speed of the DTNB (and its resulting increase in the absorbance at 412 nm) is proportional to the total amount of glutathione (GSH+GSSG). To proceed with the measurement of the total glutathione content, the cytosolic extracts obtained from the stomachs of the animals of the ulcer induced by ethanol trials were used. […] The plate was placed on the spectrophotometer reader, where it was maintained for 5 minutes in a temperature of 30° C. After this period, 15 μL of glutathione reductase was added and the increase on the absorbance was registered at 412 nm. […]

myeloperoxidase (MPO) [3] = experiment: MPO activity of the gastric mucous, ulcer induced by acetic acid; assay type: in vivo, rats; settings: oral, extract 300 mg/kg, lansoprazole 30 mg/kg
Method: The myeloperoxidase activity was determined through the method disclosed by Krawisz et al. in 1984. The samples were homogenized in hexadecyl trimethyl ammonium bromide (HTAB) buffer at 0.5% (w/v) in saline phosphate buffer (50 mM, pH 6.0) with final dilution of 1:20 (w/v) until the obtainment of an uniform aspect.
The homogenate was submitted to the ultrasonic bath for 10 seconds, followed by a triple process for freezing and defrosting, which facilitates the rupture of the cell structures and, as a consequence, the release of the enzyme.
The sample was centrifuged at 7000 G, during 10 minutes and the MPO activity was determined following the kinetics of the reaction faced to hydrogen peroxide.
In an ELISA plate, 50 μL of the supernatant and 150 μL of the color reactive and hydrogen peroxide (0.066%) were placed in phosphate buffer (50 mM, pH 6.0).
(§4) The absorbance was determined at 450 nm and the enzyme activity was calculated by the interpolation of the standard curve, performed with MPO originated from human neutrophils.
(§5) One unity of MPO is defined as the necessary amount to degrade 1 mmol/minute of hydrogen peroxide at 25° C. The results were expressed as U/g of protein.

myeloperoxidase (MPO) [4] = experiment: MPO activity, ulcer induced by ethanol; assay type: in vivo; settings: rats
Method: The myeloperoxidase activity was determined through the method disclosed by Krawisz et al. in 1984. The samples were homogenized in hexadecyl trimethyl ammonium bromide (HTAB) buffer at 0.5% (w/v) in saline phosphate buffer (50 mM, pH 6.0) with final dilution of 1:20 (w/v) until the obtainment of an uniform aspect. […]
The sample was centrifuged at 7000 G, during 10 minutes and the MPO activity was determined following the kinetics of the reaction faced to hydrogen peroxide. […]
as §4, §5

[5] = tested on: ulcer induced by acetic acid; experiment: Healing of the ulcer induced by acetic acid, injury area; assay type: in vivo, rats
Method: The rats were anaesthetized with xilazine chloridrate and ketamine for performing a longitudinal incision right under the xiphoid apophysis.
The previous wall of the stomach was exposed and an area of the serous tissue was delimited with a plastic ring upon which was added 50 μL of acetic acid absolute with the aid of an automatic micropipette, the contact between the acid and the serous tissue being maintained during 60 seconds.
Following, the area was cleaned with saline solution and the animals had their abdominal cavities closed, being maintained in rest until complete recovery of the anesthesia and, then, they were placed at the vivarium.
(§1) After 48 hours of the surgical procedure, the oral administration of the treatments was initiated (once daily for 7 and 14 days) with EAB (300 mg/kg), lansoprazole (30 mg/kg—positive control) and vehicle (saline solution 0.9%—negative control).
(§2) The animals were weighted and observed from the induction of the injury to the end of treatments. At the end of this period, the animals were sacrificed; their stomachs were removed and opened toward the great curvature to the measurement of the ulcerative injury area.

[6] = Sub-chronic toxicity evaluation (organ and body weight), acetic acid ulcer model; assay type: in vivo, rats; settings: oral
Method: as §1, §2
(§3) Tissue sections were also collected for preparing histological blades. The animals also had heart, lungs, liver, kidneys and testicles collected and weighted in order to verify possible signs of toxicity.

[7] = tested on: ulcer induced by acetic acid; experiment: Histological analysis of stomachs, ulcer induced by acetic acid; assay type: in vivo, rats; settings: treated for 14 days, compared to the saline group
Method: as §3
The histological cuts and blades were prepared by fixing the material in Alfac (formalin, alcohol 80% and acetic acid) for 24 hours. The pieces were, then, dehydrated and included in an appropriate medium solid.
Subsequently, the middle blocks were cut ([…] thick) on a microtome, serially. The samples were submitted to hematoxylin-eosin (HE) coloration for general observation of the structure and cellularity in light microscopy.

Structure (SMILES)	Volume of gastric acid secretion (mL) (gastric acid secretion)	pH of the gastric acid secretion (gastric acid secretion)	GR (nmol/min/mg of protein) [1]	GPx (nmol/min/mg of protein) [2]	GSH (nmol/mg of protein) (GSH)	MPO (U/mg of protein) (myeloperoxidase (MPO) [3]; 7 consecutive days)	MPO (U/mg of protein) (myeloperoxidase (MPO) [3]; 14 consecutive days)	MPO (U/mg of protein) (myeloperoxidase (MPO) [4])	Ulcerogenic injury area (FIG. 6) ([5]; 7 consecutive days, oral, extract 300 mg/kg, lansoprazole 30 mg/kg)	Evolution of the healing process, recovery of the gastric mucous (FIG. 8) ([5]; during 14 days of oral treatment)	Evolution of the corporal weight (FIG. 5) ([6]; sub-chronic treatment, 14 days)	Relation between the weight of the organs and the animals: lungs (FIG. 3) ([6]; treated for 7 days)	Photomicrographs of stomachs (FIG. 11) [7]
CN/C(=N/CCSCc1nc[nH]c1C)NC#N [Cimetidine, cimetidine]	0.31 0.03** mL	5.39 0.11***											
Cc1c(OCC(F)(F)F)ccnc1C[S+]([O-])c1nc2ccccc2[nH]1 (centres unmarked) [Lansoprazole, lansoprazole]		5.41 0.04***	10.53 ± 0.42 nmol/min/mg of protein	33.54 ± 2.12 nmol/min/mg of protein	13.45 ± 2.25 nmol/mg of protein	110.50 ± 33.43 U/mg of protein	98.05 ± 15.99 U/mg of protein	0.6 0.04* U/mg of protein	reduction of the injury area	acceleration	no significative statistical difference	reduction of this relation in the lungs	speeded up the healing of the gastric mucous
